{"source": "patent US11202836B2", "about": "“PSMA targeted conjugate compounds and uses thereof” (CASE WESTERN RESERVE UNIVERSITY, priority 2018, dated 2021)", "key": {"[1]": {"test_system": "α-tubulin", "assay": "Immunofluorescence analysis of alpha-tubulin in PC3pip and PC3flu cells", "format": "cell-based", "conditions": "5 nM, 24 hours", "experimental": "Cells on coverslips at about 70% confluency were incubated with 5 nM of MMAE, PSMA-1-VcMMAE-Cy5.5 or PSMA-1-McMMAE-Cy5.5 for 24 hours. Cells were washed and fixed with 4% paraformaldehyde for 10 minutes, permeabilized with 0.1% Triton™ X-100 for 10 minutes, and blocked with 1% BSA for 1 hour at room temperature. Alpha-tubulin (B5-1-2) Alexa Fluor 488 Mouse Monoclonal Antibody (Invitrogen) was then added at 2 μg/mL in 0.1% BSA and incubated for 3 hours at room temperature. Cells were counterstained with DAPI, mounted with Fluor-Mount aqueous mounting solution, and observed under Leica DM4000B fluorescence microscopy at 40×."}, "[2]": {"test_system": "heterotopic PC3pip tumors", "assay": "Heterotopic PC3pip tumor survival / antitumor study", "format": "in vivo", "source_text": "Male athymic nude mice were implanted subcutaneously with 1×10^6 of PC3pip cells under the right dorsum of the mice. When tumor size reached approximately 100 mm^3 (tumor volume=Length×width^2/2), mice received drugs through tail vein injection. […] Animals were weighed and tumor size measured every other day for 90 days. Cures were defined as no tumor present at end of the 90-day study. When tumors became too large or animals were moribund they were euthanized. Five mice were used in each group."}, "[3]": {"test_system": "PC3pip cells", "assay": "In vitro cytotoxicity assay (CCK-8, 72 h), PSMA-positive cells", "format": "cell-based", "conditions": "72 hours; PC3flu IC50 over PC3pip IC50", "experimental": "Cells (1,000/well) were seeded in 96-well culture plates the day before treatment. Cells were incubated with various concentrations of drugs for 72 hours and cell viability evaluated by CCK-8 (Dojindo). The concentration required to reach 50% of cell proliferation was determined (IC50) by GraphPad Prism 3.0."}, "[4]": {"assay": "Maximum tolerated dose (single i.v. dose)", "format": "in vivo, mice", "conditions": "single dose i.v., tumor-free athymic nude mice, 14 days", "source_text": "Mice were monitored daily for 14 days."}, "[5]": {"target": "T1, PSMA (Homo sapiens, UniProt Q04609)", "T1 construct": "expressed in transfected cells; host or cells: PC3pip cells (retrovirally transfected, from Dr. Michel Sadelain, MSKCC)", "T1 sequence (Q04609 whole entry)": "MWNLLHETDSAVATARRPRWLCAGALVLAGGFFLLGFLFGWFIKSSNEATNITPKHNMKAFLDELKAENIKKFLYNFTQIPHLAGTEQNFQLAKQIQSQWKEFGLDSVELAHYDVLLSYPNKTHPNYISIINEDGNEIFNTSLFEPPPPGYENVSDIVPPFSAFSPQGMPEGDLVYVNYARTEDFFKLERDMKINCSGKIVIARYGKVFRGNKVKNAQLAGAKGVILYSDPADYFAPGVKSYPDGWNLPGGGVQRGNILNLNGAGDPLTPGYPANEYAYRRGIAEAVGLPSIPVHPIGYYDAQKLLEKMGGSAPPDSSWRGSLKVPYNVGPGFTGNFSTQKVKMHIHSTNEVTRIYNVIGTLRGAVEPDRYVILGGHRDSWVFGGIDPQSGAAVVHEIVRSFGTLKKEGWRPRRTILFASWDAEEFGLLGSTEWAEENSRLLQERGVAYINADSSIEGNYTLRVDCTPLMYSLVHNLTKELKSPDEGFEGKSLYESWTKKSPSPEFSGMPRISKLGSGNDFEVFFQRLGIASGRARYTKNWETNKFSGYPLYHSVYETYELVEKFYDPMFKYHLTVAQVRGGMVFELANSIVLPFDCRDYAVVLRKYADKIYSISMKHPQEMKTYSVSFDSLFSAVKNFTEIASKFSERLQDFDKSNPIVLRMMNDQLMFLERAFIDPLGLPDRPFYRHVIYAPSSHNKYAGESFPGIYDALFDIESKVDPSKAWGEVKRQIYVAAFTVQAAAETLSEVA", "assay": "Competitive binding assay against 3H-ZJ24 on PC3pip cells", "conditions": "10 nM 3H-ZJ24, read-out: IC50, competition binding to PSMA", "experimental": "The assay was carried as previously reported by incubation PC3pip cells with different concentrations of drug conjugates in the presence of 10 nM N—[N—[(S)-1,3-dicarboxypropyl]carbamoyl]-S-[^3H]-methyl-L-cysteine (^3H-ZJ24) (GE Healthcare Life Sciences, Pittsburgh, Pa.). Radioactivity of cell pellet was counted by scintillation counter. The concentration required to inhibit 50% of binding was determined (IC50) by GraphPad Prism 3.0."}, "[6]": {"test_system": "PC3Pip flank tumors", "assay": "Example 1 mouse PC3Pip flank tumor xenograft study", "format": "in vivo, mice", "conditions": "2 mg/kg doxorubicin or molar equivalent, day 0, 7, 14, i.v.", "experimental": "All animal procedures were performed according to the protocols approved by the Institutional Animal Care and Use Committee (IACUC). Our approval is Case Western Reserve University IACUC #2015-0033. Athymic nude mice aged 6-8 weeks were implanted subcutaneously with 1×10^6 PC3Pip cells in 100 μL Matrigel on the right flank. Tumors were allowed to grow for two weeks. Mice were then treated with three doses of free doxorubicin or PSMA-1-MMCCH-Dox in PBS on day 0, 7, and 14 of the study via tail vein injection. Dose used was 2 mg/kg doxorubicin, or the equivalent molar dosage of the PSMA-targeted prodrug. Tumor dimensions were measured using calipers twice per week, and mouse weights were recorded on these days, as well. The study duration was 21 days."}, "[7]": {"test_system": "PC3pip cells", "assay": "Example 1 cytotoxicity assay (Dojindo CCK8), PSMA-expressing cells", "format": "cell-based", "conditions": "continuous 48 hours", "experimental": "(§1) PC3Pip and PC3Flu cells (2000 cells/100 μL/well) were plated in 96 well plates and rested for 24 hours to adhere to the plate surface. To each well, we added 10 μL of an 11× concentrated solution of doxorubicin or conjugate. Each drug dose was tested in groups of six wells. Dojindo CCK8 assays were used to determine relative cell survival of treated wells compared with untreated controls. This is a […] assay for determination of cell viability and proliferation. A water-soluble tetrazolium salt, WST-8, is reduced by dehydrogenase activity in the cell which produces an orange dye with relative amounts quantified by absorbance. Briefly, 10 μL assay solution was added to each well, the plate was left to incubate while orange color was produced, the absorption of the solution in the plate was read at 450 nm, and the cell viabilities were calculated."}, "[8]": {"test_system": "PC3flu cells", "assay": "Example 1 cytotoxicity assay (Dojindo CCK8), PSMA-negative cells", "format": "cell-based", "conditions": "continuous 48 hours", "experimental": "as §1"}, "[9]": {"test_system": "PC3Pip and PC3Flu cells", "assay": "Example 1 in vitro cellular uptake (doxorubicin fluorescence microscopy)", "format": "cell-based", "conditions": "1 μM, 90 minutes or 48 hours", "experimental": "PC3Pip and PC3flu cells (1.5×10^5) were plated on coverslips and allowed to adhere for 36-48 hours. Cells were incubated in 1 μM of free doxorubicin or the various PSMA-1-Doxorubicin conjugates in RPMI media. Similar experiments are reported widely in the literature, with doses usually in the μM range because of doxorubicin's relatively dim fluorescence, at least compared with some of the commercially available dyes used in our lab. This dose was chosen to balance that relatively dim fluorescence with a goal of attempting to maintain selectivity.\nNext, cells were washed 3 times with RPMI media, fixed with 4% paraformaldehyde for 10 minutes, and washed twice with phosphate-buffered saline (PBS). The cells were counterstained with DAPI nuclear staining, mounted on microscope slides with a 50% mounting solution mixture of PBS and glycol, and the coverslips were sealed with clear nail polish. Fluorescent imaging was performed with Leica DM4000B fluorescence microscopy. DAPI imaging used the Blue filter with excitation/emission at 410/455 nm. Doxorubicin was imaged with the Texas Red filter with Ex/Em 587/612 nm."}}, "note": "*1 amine or outer side, *2 acyl side, *3 side chain or, on linkers, in order; H or OH if unused. Where a SMILES comes first, the peptide text is derived from it. [ ]: non-standard residue; d: D form. The star is where a group is joined. Dolaproine = CO[C@@H]([C@@H]1CCCN1)[C@@H](C)C(=O)O; Dil = CC[C@H](C)[C@H](NC)[C@@H](CC(=O)O)OC; γGlu = O=C(O)[C@H](CCC(=O)[*:2])N[*:1]; X4 = C[C@@H](N*)[C@@H](O)c1ccccc1; X1 = O=C(C1CCC(CN[*:1])CC1)[*:2]; NMeV = CN[C@H](C(=O)O)C(C)C; CO = O=C([*:1])[*:2]; Ahx = NCCCCCC(=O)O", "data": [{"smiles": "CC[C@H](C)[C@@H]([C@@H](CC(=O)N1CCC[C@H]1[C@H](OC)[C@@H](C)C(=O)N[C@H](C)[C@@H](O)c1ccccc1)OC)N(C)C(=O)[C@@H](NC(=O)[C@@H](NC)C(C)C)C(C)C", "note": "[MMAE, monomethyl auristatin E, reference compound] (H-[NMeV]V[Dil][Dolaproine]-X4)", "values": [{"measurement": "disruption of α-tubulin", "setting": "[1]", "result": "non-selective tubulin disruption"}, {"measurement": "time by which all mice died", "setting": "[2]; 160 nmol/kg", "result": "≤ 36", "unit": "days"}, {"measurement": "tumor growth", "setting": "[2]; 160 nmol/kg i.v. every 4 days, 5 doses", "result": "relatively ineffective at inhibiting tumor growth"}, {"measurement": "selectivity, differential cytotoxicity PC3pip vs PC3flu cells", "setting": "[3]", "result": "no selectivity"}, {"measurement": "maximum tolerated dose (MTD)", "setting": "[4]", "result": 700, "unit": "nmol/kg"}]}, {"smiles": "NCCCC[C@H](NC(=O)[C@H](CCC(=O)O)NC(=O)[C@H](CCC(=O)O)NC(=O)[C@H](CCC(=O)O)NC(=O)CCCCCNC(=O)C1CCC(CNC(=O)CC[C@H](NC(=O)N[C@@H](CCC(=O)O)C(=O)O)C(=O)O)CC1)C(N)=O", "note": "(stereo partly shown) [PSMA-1] ({Glu-CO-γGlu}-[X1][Ahx]EEEK-NH2; C-terminus assumed)", "values": [{"measurement": "IC50", "setting": "[5]", "result": 2.3, "unit": "nM"}]}, {"smiles": "CSC[C@H](NC(=O)N[C@@H](CCC(=O)O)C(=O)O)C(=O)O", "note": "[ZJ24, reference compound]", "values": [{"measurement": "IC50", "setting": "[5]", "result": 11.7, "unit": "nM"}]}, {"smiles": "COc1cccc2c1C(=O)c1c(O)c3c(c(O)c1C2=O)C[C@@](O)(C(=O)CO)C[C@@H]3O[C@H]1C[C@H](N)[C@H](O)[C@H](C)O1", "note": "[doxorubicin]", "values": [{"measurement": "tumor growth", "setting": "[6]", "result": "more rapid tumor growth"}, {"measurement": "weight loss over the duration of the study", "setting": "[6]; 21 days", "result": 17.3, "unit": "%"}, {"measurement": "growth inhibition of PC3Pip cells", "setting": "[7]", "result": "potent, equal growth inhibition"}, {"measurement": "growth inhibition of PC3Flu cells", "setting": "[8]", "result": "potent, equal growth inhibition"}, {"measurement": "subcellular pattern of doxorubicin signal", "setting": "[9]", "result": "primarily in the nucleus"}, {"measurement": "uptake in PC3Pip compared with PC3Flu cells", "setting": "[9]", "result": "equally seen in PC3Pip and PC3Flu cell lines"}]}]}
